The results in this text go back to patent publication US7332631B2, “Fc receptor modulating compounds and compositions” (Trillium Therapeutics Inc., priority 2002, dated 2008).

For data set [1], the target named is T1, FcγRIIa (Homo sapiens, UniProt P12318).
T1 construct: endogenous in cells; host or cells: washed human platelets
T1 sequence (P12318 34-317): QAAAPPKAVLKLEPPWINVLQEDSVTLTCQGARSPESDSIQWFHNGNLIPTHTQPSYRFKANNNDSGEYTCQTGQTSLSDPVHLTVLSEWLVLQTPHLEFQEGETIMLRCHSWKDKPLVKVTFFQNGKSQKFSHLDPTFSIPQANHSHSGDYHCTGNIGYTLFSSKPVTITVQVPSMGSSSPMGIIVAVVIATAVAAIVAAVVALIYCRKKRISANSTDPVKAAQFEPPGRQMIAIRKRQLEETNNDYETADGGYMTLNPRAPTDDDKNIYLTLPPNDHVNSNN
Nature of the data set: FACS assay of activation of human platelets by heat aggregated IgG (HAGG), P-Selectin expression. Type of data set: cell-based. Conditions: for inhibition at 500 µg/mL / % Inhibition of platelet Activation: primary screen, single concentration of inhibitor 500 μg/ml, HAGG 40 μg/ml, several values = repeat determinations; for inhibition at 500 µg/mL: read-out: % Inhibition of platelet Activation. The protocol:
The compounds of Table 1 were screened in a FcγRIIa dependent platelet activation assay and/or aggregation assay where platelets are activated using heat aggregated human immunoglobulin G as an immune complex. Compounds inhibiting this process were then tested for specificity. Note that the platelets were used as the target as the only Fc receptor expressed on these cells is FcγRIIa. In addition, they are very difficult to inhibit and therefore this assists in identifying compounds with reasonable potency.
The compounds of the present invention were initially screened in a rapid FACS screening assay, measuring activation of human platelets by heat aggregated IgG. […] In addition, platelets are very sensitive to a range of stimuli and activate rapidly. Activation is measured by the appearance of the protein P-Selectin on the platelet membrane after exposure to various stimuli. The stimuli were heat aggregated with IgG and as specificity controls, collagen or thrombin.
Specifically, this assay utilises washed platelets and heat aggregated IgG (HAGG) as an immune complex (agonist) to activate and crosslink FcγRIIa. Because this is a primary screen a single concentration of small molecule inhibitor is added to the platelets (final concentration of 500 μg/ml) and allowed to incubate for 30 minutes. Heat Aggregated IgG (HAGG) (40 μg/ml) is then added to the platelets and allowed to incubate for 30 minutes. Paraformaldehyde is added to the platelets for 30 minutes prior to washing. Anti-P-Selectin (FITC conjugated) and Anti-CD41 (PE conjugated) are added and the platelets are then screened by FACS to detect expression of P-Selectin, a marker of platelet activation and CD41, which is expressed by all viable platelets.
In summary, for each compound tested the activity was measured as a function of inhibition of platelet activation and/or platelet aggregation as detailed above. Specificity is defined as specific inhibition of immune complex induced platelet activation but with no effect on arachidonic acid induced activation (and where tested no effect on thrombin, collagen or ADP induced activation).
The compounds were titrated and evaluated for capacity to prevent aggregated IgG induction of p-selectin expression as a measure of activation.

The target of data set [2] is HSA-FcγRIIa (Homo sapiens, UniProt P02768+P12318). Put plainly: ELISA Inhibition Assay: inhibition of human IgG complex binding to plate-bound HSA-FcγRIIa. The note with it: HSA-FcγRIIa 5 μg/ml on plate, human IgG complex 0.2 μg/ml. As to the method:
The compounds may also be screened using an ELISA inhibition assay to detect the blockade of IgG interaction with FcγRIIa.
Compounds were also screened using an ELISA Inhibition Assay. Human Serum Albumin genetically fused to FcγRIIa (HSA-FcγRIIa) was bound to an ELISA plate at a concentration of 5 μg/ml. The small molecule inhibitors were titrated from a starting concentration of 5 mg/ml and allowed to incubate in the presence of the receptor. A human IgG complex (0.2 μg/ml) is then added to the plate and the extent of inhibition of IgG binding by the small molecule inhibitors was measured using HRP labelled anti-human antibody.
(An ELISA detects its analyte on a solid surface through an enzyme-linked reagent.)

Setting [3] is: in vitro testing, summary table, read-out: IC50 Platelet Inhibition.
Where [4] appears, read: washed human platelets, HAGG as agonist, several values in a cell = repeat determinations, '(ICnn)' after a '<' bound = inhibition level at that concentration, read-out: Concentration at 50% inhibition of platelet activation by HAGG.

Where “and” joins values, the source holds several entries; their conditions need not be identical. Identical values can stand only once. Like-named read-outs stand apart in the source and are kept apart here. Peptide text beside a SMILES is read from it. * marks the point of attachment. Cbz = O=C(OCc1ccccc1)*

In general, inhibition refers to the relative decrease from the control value, in per cent. A word on the melting point: it is the temperature, or range, at which the solid turns liquid.

HSA-FcγRIIa, sequence (P02768+P12318 fused): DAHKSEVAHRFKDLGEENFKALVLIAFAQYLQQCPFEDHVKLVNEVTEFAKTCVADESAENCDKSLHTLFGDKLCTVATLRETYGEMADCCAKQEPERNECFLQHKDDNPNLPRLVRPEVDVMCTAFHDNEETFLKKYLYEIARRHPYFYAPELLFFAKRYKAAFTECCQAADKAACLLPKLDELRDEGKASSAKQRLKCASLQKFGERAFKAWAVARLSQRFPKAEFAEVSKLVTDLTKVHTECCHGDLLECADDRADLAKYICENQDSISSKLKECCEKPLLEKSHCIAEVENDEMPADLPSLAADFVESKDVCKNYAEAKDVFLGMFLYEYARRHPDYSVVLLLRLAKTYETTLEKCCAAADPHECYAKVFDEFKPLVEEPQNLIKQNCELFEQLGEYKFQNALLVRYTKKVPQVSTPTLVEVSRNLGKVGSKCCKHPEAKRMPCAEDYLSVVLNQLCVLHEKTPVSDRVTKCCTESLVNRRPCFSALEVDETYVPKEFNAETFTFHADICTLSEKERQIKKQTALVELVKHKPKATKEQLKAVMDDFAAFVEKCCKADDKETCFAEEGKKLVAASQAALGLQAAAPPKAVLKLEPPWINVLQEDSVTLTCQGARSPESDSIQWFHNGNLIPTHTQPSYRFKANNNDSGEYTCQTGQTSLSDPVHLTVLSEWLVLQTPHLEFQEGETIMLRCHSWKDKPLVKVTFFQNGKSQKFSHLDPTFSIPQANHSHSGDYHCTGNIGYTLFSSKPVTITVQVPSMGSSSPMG

Take `O=C(O)c1ccc2c(c1)C(=O)c1cc(C(=O)O)ccc1-2` [Compound 001]: the values for the IC50 in data set [1] (setting [3]), in data set [1] (setting [4]) and in data set [2] were 610 µM, 600 µM and 12200 µM, respectively.

Take `O=C(O)c1sc2cc([N+](=O)[O-])ccc2c1Cl` [Compound 026, 3-Chloro-6-nitro-1-benzo[b]thiophene-2-carboxylic acid]: the IC50 was 780 µM in data set [1] (setting [3]), 100 µM in data set [1] (setting [4]) and 17500 µM in data set [2].

Consider `O=C(O)c1cccc([S+]([O-])c2cccc(C(=O)O)c2)c1` [Compound 032, 3-[(3-Carboxyphenyl)sulfinyl]benzenecarboxylic acid], for which the “IC50 Platelet Inhibition” value in data set [1] (in vitro testing, summary table) was “-'ve”. The IC50 in data set [1] (setting [4]) came to 70 µM; in data set [2], 2800 µM.

Take `O=C(O)c1c(Cl)c2ccc([N+](=O)[O-])cc2[s+]1[O-]` (stereo not drawn) [Compound 044, 3-Chloro-6-nitro-1-benzo[b]thiophene-S-oxo-2-carboxylic acid]: in data set [1] (setting [4]), the IC50 was determined as 230 µM.

On to `O=C(O)c1cccc(/C=N/c2cccc(C(=O)O)c2)c1` [Compound 076], for which the inhibition at 500 µg/mL in data set [1] was 13%.

As for `O=C(O)c1ccc(/C=N/c2cccc(C(=O)O)c2)cc1` [Compound 081], the inhibition at 500 µg/mL in data set [1] amounted to 83%.

With `COc1cccc2c(OC(C)C)c(C(=O)Nc3nnn[nH]3)sc12` [Compound 090, 3-isopropoxy-7-methoxy-N-(1H-1,2,3,4-tetrazol-5-yl)-1-benzo[b]thiophene-2-carboxamide], the IC50 in data set [1] (setting [4]) is 195 µM and 295 µM.

`COc1ccc2sc(C(=O)Nc3nnn[nH]3)c(OC(C)C)c2c1[N+](=O)[O-]` [Compound 092, 3-isopropoxy-4-nitro-5-methoxy-N-(1H-1,2,3,4-tetrazol-5-yl)-1-benzo[b]thiophene-2-carboxamide] yielded a melting point of 236 to 238 °C. Also, the IC50 in data set [1] (setting [4]) is 435 µM.

`O=C(O)c1cccc(CNc2cccc(C(=O)O)c2)c1` [Compound 100]: the inhibition at 500 µg/mL in data set [1] was 7%.

With `O=C(O)c1cccc(/C=N/c2cc(C(=O)O)cc(C(=O)O)c2)c1` [Compound 114], the inhibition at 500 µg/mL in data set [1] was found to be 8%.

In the case of `O=C(Nc1cccc(C(=O)O)c1)Nc1cccc(C(=O)O)c1` [Compound 192], in data set [1], the “% Inhibition of platelet Activation” value stood at 19% and the inhibition at 500 µg/mL stood at 22%.

`O=C(O)CCCCCNC(=O)OCc1ccccc1` [Compound 197]: the values for the IC50 in data set [1] (setting [3]) and in data set [2] were 1300 µM and 9400 µM, respectively.

As for `O=C(O)c1cccc(/C=N/Nc2cccc(C(=O)O)c2)c1` [Compound 200], the “% Inhibition of platelet Activation” value in data set [1] is 98% and 54% and 95%.

As for `N#Cc1cccc(C(=O)CSc2cccc(C(=O)O)c2)c1` [Compound 216, 3-[2-(3-Cyanophenyl)-2-oxoethylsulfanyl]benzoic acid], the IC50 in data set [1] (setting [3]) was 250 µM; in data set [1] (setting [4]), 240 µM; in data set [2], 3000 µM.

For the compound `O=C(O)c1cccc(SCC(=O)c2cccc(C(=O)O)c2)c1` [Compound 217, 3-[2-Oxo-2-(3-carboxyphenyl)ethylsulfanyl]benzoic acid], the IC50 in data set [1] (setting [3]) was 320 µM; in data set [1] (setting [4]), 360 µM and > 630 µM; in data set [2] it was 6100 µM.

As for `O=C(O)CCNC(=O)OCc1ccccc1` [Compound 233], in data set [1], the “% Inhibition of platelet Activation” value is reported as 74%.

`CC(NC(=O)CNC(=O)CNC(=O)OCc1ccccc1)C(=O)O` (stereo not drawn) [Compound 235]: the “% Inhibition of platelet Activation” value in data set [1] was 30% and 49% and 54%.

With `O=C(O)CNC(=O)CNC(=O)OCc1ccccc1` [Compound 236] (Cbz-Gly-Gly-OH), the “% Inhibition of platelet Activation” value in data set [1] was 34% and 33% and 65%.

`O=C(O)c1ccc(C(=O)/C=C/c2ccccc2)cc1` [Compound 237, 4-[(2E)-3-phenylprop-2-enoyl]benzoic acid]: the IC50 in data set [1] (setting [3]) turned out to be 40 µM; in data set [1] (setting [4]), 40 µM; in data set [2] it was 6200 µM.

Consider `O=C(/C=C/c1ccccc1C(=O)O)c1ccc[nH]1` [Compound 238, 2-[3-Oxo-3-(1H-pyrrol-2-yl)propenyl]benzoic acid], for which the IC50 turned out to be 270 µM in data set [1] (setting [3]), 270 µM in data set [1] (setting [4]) and 17500 µM in data set [2].

`N#CCCCSc1cccc(C(=O)O)c1` [Compound 239, 3-(3-Cyanopropylsulfanyl)benzoic acid]: the IC50 in data set [1] (setting [3]) and in data set [1] (setting [4]) was 330 µM throughout. Also, the “IC50 ELISA” value in data set [2] is given as “-'ve”.

`O=C(O)c1cccc(C(=O)CSCC(=O)c2cccc(C(=O)O)c2)c1` [Compound 292, 1-(3-Carboxyphenyl)-2-[2-(3-carboxyphenyl)-2-oxoethylsulfanyl]ethanone]: the IC50 in data set [1] (setting [3]) came out at 520 µM; in data set [1] (setting [4]) it was 520 µM; in data set [2], 5600 µM.

Turning to `O=C(O)c1cccc(SCC(=O)c2ccccc2)c1` [Compound 294], the IC50 in data set [1] (setting [3]) is 80 µM; in data set [1] (setting [4]) it was < 190 µM and 135 µM and 155 µM and 80 µM; in data set [2] it was 6000 µM.

Consider `O=C(O)/C=C/c1ccc(OCCc2ccccc2)cc1` [Compound 299, 4-Phenethyloxycinnamic acid], for which the IC50 in data set [1] (setting [3]) was determined as 410 µM; in data set [1] (setting [4]), 410 µM; in data set [2], 7200 µM.

As to `O=C(O)c1sc2ccccc2c1OCc1ccccc1` [Compound 333, 3-Benzyloxy-1-benzo[b]thiophene-2-carboxylic acid], the values for the IC50 in data set [1] (setting [3]), in data set [1] (setting [4]) and in data set [2] were 520 µM, 520 µM and 1600 µM, respectively.

In the case of `Cc1c(C(C)(C)C)cc(/C=C(\C#N)C(=O)O)cc1C(C)(C)C` [Compound 350], the IC50 in data set [1] (setting [3]) turned out to be 290 µM; in data set [1] (setting [4]) it was 290 µM; in data set [2], 1300 µM.

Turning to `C/C(=C1\SC(=S)N(CC(=O)O)C1=O)c1cccc(O)c1` [Compound 374, 5-(-Methyl-3-hydroxybenzylidine)rhodanine-3-acetic acid], the IC50 in data set [1] (setting [3]) is 220 µM; in data set [2], 2000 µM.

In the case of `C/C(=C(/S)C(=O)NCC(=O)O)c1cccc(O)c1` [Compound 383, [3-(3-Hydroxyphenyl)-2-mercaptobut-2-enoylamino]acetic add], the figures for the IC50 in data set [1] (setting [3]), in data set [1] (setting [4]) and in data set [2] were 280 µM, 280 µM and 1000 µM, respectively.

For `O=C(O)c1ccc(SCC(=O)c2ccccc2)cc1` [Compound 384, 4-[(2-oxo-2-phenylethyl)thio]benzoic acid], the values for the IC50 in data set [1] (setting [3]), in data set [1] (setting [4]) and in data set [2] were 170 µM, 170 µM and 4800 µM, respectively.

Regarding `N#Cc1cccc(C(=O)CSc2ccc(C(=O)O)cc2)c1` [Compound 385, 4-{[2-(3-cyanophenyl)-2-oxoethyl]thio}benzoic acid], the IC50 in data set [1] (setting [3]) turned out to be 360 µM; in data set [1] (setting [4]), 360 µM; in data set [2] it was 6800 µM.

On to `O=C(O)c1ccc(C(=O)CSc2ccccc2C(=O)O)cc1` [Compound 410, 2-{[2-(4-carboxyphenyl)-2-oxoethyl]thio}benzoic acid], for which the IC50 stood at 50 µM in data set [1] (setting [3]), 50 µM in data set [1] (setting [4]) and 6900 µM in data set [2].

Turning to `N#Cc1cccc(C(=O)CSc2ccccc2C(=O)O)c1` [Compound 411, 2-{[2-(3-cyanophenyl)-2-oxoethyl]thio}benzoic acid], the figures for the IC50 in data set [1] (setting [3]), in data set [1] (setting [4]) and in data set [2] were 180 µM, 180 µM and 7800 µM, respectively.

`O=C(O)c1cccc(C(=O)CSc2ccccc2C(=O)O)c1` [Compound 412, 2-{[2-(3-carboxyphenyl)-2-oxoethyl]thio}benzoic add]: the IC50 in data set [1] (setting [3]) came to 60 µM; in data set [1] (setting [4]) it was 60 µM; in data set [2], 7000 µM.
